Measurements reported in PMC5768343, “A natural inhibitor of kidney-type glutaminase: a withanolide from Physalis pubescens with potent anti-tumor activity” (Oncotarget, 2017).

How the values were obtained:
[1] = tested on: erlotinib-resistant human non-small cell lung cancer cells (HCC827-ER); test: CCK8 cytotoxicity / proliferation assay, HCC827-ER; type: cell-based
Description: The experiment was performed in triplicate.

[2] = tested on: SW1990 cells; test: Combination with benserazide, CCK8 viability and CompuSyn combination index; type: cell-based, human; conditions: combined use with benserazide, ratio less than 1:50, CompuSyn
Excerpt: Tumor cells are speculated to maintain growth and proliferation through a variety of energy metabolism pathways. Therefore, targeting at a single energy metabolism material might not be an effective method for cancer therapy. It has been determined that growing cancer cells were strongly dependent on energy sources such as glucose and glutamine. We supposed that the blocking of both glucose and glutamine metabolism pathways could display a synergistic tumor inhibition. Hexokinase 2 (HK2) was the crucial enzyme controlling the first step of glycolysis, and systemic deletion of HK2 can impair the tumor progression in mouse models. Nowadays, Metformin (Met), 2-Deoxyglucose (2-DG) and 3-Bromopyruvate (3-BrPA) are most commonly reported HK2 inhibitors. […] The combined inhibitory effects of physapubescin K and benserazide on the growth of SW1990 cells were evaluated. […]
Figure 8 Synergy of physapubescin K (PSBK) in combination treatments (A) Cells were cultured for 1 day with or without the indicated doses of PSBK and benserazide, and cell viability was evaluated by CCK8 assay. (B) At the indicated concentration ratio of PSBK: benserazide combinations at different effect levels, ED50, ED75 and ED95 were calculated using the CompuSyn software. […] The proportion of cells in proliferation is counted by manual counting (D).

[3] = tested on: SW1990 cells; test: Flow cytometric analysis for apoptosis (Annexin V/PI); type: cell-based, human; conditions: SW1990, 24 h
Description: SW1990 cells were cultured in six-well plates and treated with different concentrations of physapubescin K for 24 h. Then the cells were harvested, washed twice with ice-cold PBS, and mixed in 100 μL of 1× binding buffer (10 mM HEPES/ NaOH, pH 7.4, 140 mM NaCl, 2.5 mM CaCl2). After incubating with Annexin-V and PI staining liquid (Nanjing KeyGen Biotech. Inc.) for 15 min at room temperature, the cells were examined by flow cytometry (BD Biosciences, FACSCalibur).

[4] = tested on: glutamine metabolism in SW1990 cells; test: Intracellular metabolite levels and NADPH/NADP+, SW1990; type: cell-based, human; conditions: SW1990, 2.5 or 5 μM, 4 hours
Description: Blocking glutamine metabolism can inhibit the growth and proliferation of glutamine-dependent cells, mainly because of blocking the production and utilization of glutamine metabolites. The effects of different concentrations of physapubescin K on the intracellular glutamine and its downstream metabolites were examined. […] And the same effect could also be seen in Hcc827-ER cells (Figure 7C).
NADPH/NADP^+ ratio was determined by using NADP^+/NADPH Quantification Colorimetric Kit (BioVision, #K347-100). The abundance of intracellular glutamine (KeyGen, Nanjing, China A124), glutamate (KeyGen, Nanjing, China A074), (BioVision, #K778), aspartate (BioVision, #K552), oxaloacetate (BioVision, #K659) and malate (BioVision, #K637) was determined by using quantification kits, according the manufacturer’s instruction. Briefly, 5 × 10^6 cells (10-cm dishes) were collected during log-phase growth by cell scraper, homogenized in 0.2 mL of provided buffers (on ice), and centrifuged at 4°C for 10 min at 13,000 g. Supernatants were deproteinized using 10 K Ultrafiltration tube (Millipore, USA), analyzed and compared to standard curves. The signals obtained were normalized to the protein concentration calculated upon processing a parallel 10-cm dish.

[5] = tested on: HCC827-ER; test: EdU and DAPI double staining, combination with erlotinib; type: cell-based, human; conditions: 0.5 μM with erlotinib 1, 2, 4, 8 μM
Description: The logarithmic growth phase cells were seeded in 24-well plates at 2 × 10^4 ∼ 5 × 10^5 cells per well. After 4–6 h, the medium was removed, the medium containing no or different concentrations of compound was replaced, and 50 μM of EdU was added. 2 h later, the medium was removed, cells washed by PBS. 200 μL of cell fixative (i.e., PBS containing 4% paraformaldehyde) was added and incubated at room temperature for 30 minutes. The solution was discarded and 200 μL of 2 mg/mL glycine was added to each well. After 5 minutes of incubation, the glycine solution was discarded. Each well washed with 200 μL of PBS, rinse for 5 minutes, and PBS was removed. Apollo staining was added to each well with 200 μL of 1 X Apollo® staining solution. After incubation for 30 minutes at room temperature and decolorization, the reaction solution was discarded. Similarly, 200 μL of 1 × Hoechst 33342 solution was added to each well to dye the total DNA. After 30 minutes of incubation at room temperature and the reaction solution was discarded, and then the images were captured and analyzed by fluorescence microscopy.

[6] = tested on: human pancreatic cancer cells (SW1990); test: CCK8 cytotoxicity / proliferation assay, SW1990; conditions: for relative cell vitality: CCK8
Description: (§1) The SW1990, HT1080, and A375-S2 human tumor cell lines were obtained from ATCC (Manassas, VA, USA). […] SW1990, HT1080, and LO2 cells were cultured in DMEM medium with 10% fetal bovine serum (FBS). All of these cells were cultured at 37°C in a humidified atmosphere with 5% CO2. To estimate cell viability, cells (5000/well) were separately seeded in 96-well plates for 24 h at 37°C in a 5% CO2 incubator. […] All the experiments were performed in triplicate, and the mean absorbance values were calculated. The IC50 values of the compounds were derived from the mean OD values of the triplicate tests versus the drug concentration curves.
Cell proliferation was assessed by incubating them with Cell Counting Kit-8 reagents (Dojindo, Shanghai, China) for 24 h, 48 h, 72 h, 96 h at 37°C and measuring the absorbance at 450 nm. The experiment was performed in triplicate.

[7] = molecular target: T1, KGA (recombinant cKGA) (Homo sapiens, UniProt O94925); test: Microscale thermophoresis (MST) binding assay; conditions: labeled KGA 200 nM, 26°C
T1 construct: human KGA (cKGA) encoding amino acids 221–553 was cloned into pET26b vector; His tag (C); made in house; host or cells: E. coli BL21 (DE3)-RIL-Codon plus
T1 sequence (O94925 221-553): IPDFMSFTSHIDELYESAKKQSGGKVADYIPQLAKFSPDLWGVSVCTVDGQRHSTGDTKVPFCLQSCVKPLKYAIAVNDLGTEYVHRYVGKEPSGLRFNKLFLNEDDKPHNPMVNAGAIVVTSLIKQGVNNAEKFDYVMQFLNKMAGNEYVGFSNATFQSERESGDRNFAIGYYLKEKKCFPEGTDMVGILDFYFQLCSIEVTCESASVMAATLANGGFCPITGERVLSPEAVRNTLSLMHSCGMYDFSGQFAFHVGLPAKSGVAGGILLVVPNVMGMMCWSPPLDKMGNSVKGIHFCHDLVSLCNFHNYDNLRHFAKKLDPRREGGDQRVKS
Excerpt: Specific details were referenced to our previous work.

[8] = tested on: human fibrosarcoma cells (HT1080); test: CCK8 cytotoxicity assay, HT1080; type: cell-based; conditions: HT-1080, CCK8, 48 h
Description: as §1

## CO[C@H]1O[C@@H]([C@@H](C)[C@H]2C[C@H](OC(C)=O)[C@H]3[C@@H]4C[C@H]5O[C@]56[C@@H](O)C=CC(=O)[C@]6(C)[C@H]4CC[C@@]32C)C[C@]2(C)O[C@]12C [physapubescin K]
[1]; HCC827-ER, 1 μM
  sensitivity of cell growth to treatment: sensitive
[1]; Homo sapiens, HCC827ER, CCK8, 48 h
  IC50: 720 ± 220 nM
[2]
  CI value: less than 0.8
[3]
  apoptosis: induce apoptosis
[4]
  consumption of glutamine: significantly reduce
  production of glutamic acid and its downstream metabolites (oxaloacetic acid, aspartic acid, malic acid): decrease
  proportion of NADPH/NADP+: significantly reduced
[5]
  sensitivity of HCC827-ER to erlotinib: significantly increase the sensitivity
[6]; Homo sapiens, SW1990, 48 h, read-out: IC50 SW1990
  IC50: 2210 ± 10 nM
[6]; SW1990, 1 μM
  sensitivity of cell growth to treatment: sensitive
[6]; SW1990, 2 μM, 24 h
  relative cell vitality: 50.3%
[6]; SW1990, 2 μM, 36 h
  relative cell vitality: 37.6%
[6]; SW1990, 2 μM, 48 h
  relative cell vitality: 27.3%
[6]; SW1990, 2 μM, alleviated by addition of 4 mM glutamate
  cell proliferation: significantly inhibited cell proliferation
[7]
  Kd: 3030 ± 380 nM
[8]
  IC50: 2850 ± 600 nM
